The results in this text go back to patent publication US12605323B2, “Composition for inhibiting hair graying, and use thereof” (LG HOUSEHOLD & HEALTH CARE LTD., priority 2020, dated 2026).

Where no end group is shown, it is not given here.

Assay [1] concerns Wnt/β-catenin signaling pathway (TCF/LEF Responsive Luciferase Reporter HEK293A cell line). Briefly: Effect of enhancing Wnt/β-catenin signaling, TCF/LEF responsive luciferase reporter assay. It is filed as cell-based. The settings on record: 10 μg/mL, 24 hours, WRHEK293A cells, non-treated control = 100%. Here is the method:
To determine activation of the Wnt/β-catenin signaling pathway, TCF/LEF Responsive Luciferase Reporter HEK293A stabilized cell line (Wnt Reporter HEK293A cell; WRHEK293A) was used in this test. The stabilized cell line was maintained through the subculture using MEM (Corning, USA) and fetal bovine serum (Gibco BRL, Gaithersburg, MD, USA). To carry out a transcriptional activity test, 30,000 cells were seeded per well in a 96-well plate and cultured in an incubator at 37° C. for 24 hours. Then, according to the present disclosure, treatment with each of escin, 27-deoxyactein, lysionotin, nitidine chloride, lanosterol, engeletin, specnuezhenide, praeruptorin B, rotundic acid, sesamoside, polygalacin D, momordin Ic, valechlorine, tussilagone, periplocin, polyphyllin VII and platycodin D2 was carried out as shown in the following Table 1. After culturing for 24 hours, a luciferase assay system (Promega) was used to perform reporter analysis. The analysis was carried out by the test method provided by the production company, and luminescence was determined by using Victor multiwall plate reader (PerkinElmer, USA). To determine cytotoxicity caused by the treatment, development of fluorescence of GFP as an internal control was determined. The luminescence value derived from the reaction with luciferase was divided by the GFP fluorescence value, and the values of the test group were calculated by taking the value of the non-treated control as 100% and expressed in the unit of percentage (%) (Table 1).

The subject of assay [2] is B-16 mouse melanoma cells. In words: Determination of effect of producing melanin. The assay is classed as cell-based. The settings on record: B-16 melanoma cells; for Melanin synthesis (%): non-treated control = 100%. Here is the method: In this test, the compounds in Test Example 1 showing an effect of enhancing the Wnt signaling were added to the culture medium of mouse-derived melanoma cells (B-16 mouse melanoma cells) to determine the effect of producing melanin in a cellular level (Lotan R., Lotan D. Cancer Res. 40: 3345-3350, 1980). Before the test, B-16 melanoma cells were evaluated in terms of toxicity, and the non-toxic concentration was selected to carry out evaluation of melanin production. B-16 melanoma cells were subcultured in DMEM (Gibco BRL., Gaithersburg, MD, USA) containing 10% FBS. Then, seeding to a 100 mm cell culture dish was performed to synthesize and extract melanin, and the cells were treated with each compound when the confluency was 70%. The compound was used for treating the cell culture at a concentration of 10 μg/mL. In addition, α-melanocyte stimulating hormone (α-MSH) was used as control, added to the culture medium to 10 nM to treat B-16 melanoma cells, and cultured for 48 hours. Then, the cells were treated with trypsin to strip them off the culture container, and centrifugal separation was carried out to extract melanin. After that, 1 mL of sodium hydroxide (1 N concentration) solution was added to the stripped cells and the mixture was boiled for 10 minutes so that melanin may be dissolved. The amount of melanin production was determined by measuring the absorbance at 400 nm by using a spectrophotometer. The amount of melanin was quantified in the unit of μg/mL by using a standard absorbance curve as a function of melanin concentration. The value of the non-treated control was taken as 100%, and the values of the test group were calculated as a percentage (%) on the basis thereof (Table 2).

For `CC=C1[C@H](O[C@@H]2O[C@H](CO)[C@@H](O)[C@H](O)[C@H]2O)OC=C(C(=O)OC)[C@H]1CC(=O)OC[C@H]1O[C@@H](OCCc2ccc(O)cc2)[C@H](O)[C@@H](O)[C@@H]1O` (stereo in doubt) [Specnuezhenide, specnuezhenide], in assay [1], the “Wnt signaling activation capability (%) (Luminescence/GFP)” value came out at 243%. For the same compound, the “Melanin synthesis (%)” value in assay [2] (10 μg/mL) was 106%.

For “α-melanocyte stimulating hormone (SYSMEHFRWGKPV; ends and bridges not checked; UniProt P01189 138-150, looked up) [α-MSH, α-melanocyte stimulating hormone used as control at 10 nM, reference compound]”, the “Melanin synthesis (%)” value in assay [2] (10 nM, 48 hours) is reported as 135%.

In the case of valechlorine, in assay [1], the “Wnt signaling activation capability (%) (Luminescence/GFP)” value was 218%. Moreover, the “Melanin synthesis (%)” value in assay [2] (10 μg/mL) is on record as 139%.

In the case of `COC(=O)C1=CO[C@@H](O[C@@H]2O[C@H](CO)[C@@H](O)[C@H](O)[C@H]2O)[C@@H]2[C@@]3(C)O[C@H]3[C@@H](O)[C@]12O` [Sesamoside, sesamoside], the “Wnt signaling activation capability (%) (Luminescence/GFP)” value in assay [1] worked out at 275%. Besides, the “Melanin synthesis (%)” value in assay [2] (10 μg/mL) turned out to be 112%.

With polyphyllin VII, the “Wnt signaling activation capability (%) (Luminescence/GFP)” value in assay [1] is given as 275%. The “Melanin synthesis (%)” value in assay [2] (10 μg/mL) was found to be 127%.

Consider `C=C1[C@H](OC(=O)/C=C(\C)CC)C[C@@H](C(C)C)[C@@H]2[C@@H]([C@@H](C)OC(C)=O)C(=O)C[C@@H]12` [Tussilagone, tussilagone], for which the “Wnt signaling activation capability (%) (Luminescence/GFP)” value in assay [1] worked out at 195%. Further, the “Melanin synthesis (%)” value in assay [2] (10 μg/mL) came out at 136%.

`CC(C)=CCC[C@@H](C)[C@H]1CC[C@@]2(C)C3=C(CC[C@]12C)[C@@]1(C)CC[C@H](O)C(C)(C)[C@@H]1CC3` [Lanosterol, lanosterol]: the “Wnt signaling activation capability (%) (Luminescence/GFP)” value in assay [1] is listed as 194%. For the same compound, the “Melanin synthesis (%)” value in assay [2] (10 μg/mL) came to 110%.

For `CO[C@H]1C[C@H](O[C@H]2CC[C@]3(C)[C@H]4CC[C@]5(C)[C@@H](C6=CC(=O)OC6)CC[C@]5(O)[C@@H]4CC[C@]3(O)C2)O[C@H](C)[C@H]1O[C@@H]1O[C@H](CO)[C@@H](O)[C@H](O)[C@H]1O` [Periplocin, periplocin], in assay [1], the “Wnt signaling activation capability (%) (Luminescence/GFP)” value is reported as 244%. Besides, the “Melanin synthesis (%)” value in assay [2] (10 μg/mL) is given as 128%.

As to `COc1ccc(-c2cc(=O)c3c(O)c(OC)c(O)c(OC)c3o2)cc1` [Lysionotin, lysionotin], in assay [1], the “Wnt signaling activation capability (%) (Luminescence/GFP)” value came to 196%. The “Melanin synthesis (%)” value in assay [2] (10 μg/mL) is 135%.

As to `C/C=C(/C)C(=O)O[C@H]1c2c(ccc3ccc(=O)oc23)OC(C)(C)[C@H]1OC(=O)/C(C)=C\C` [Praeruptorin B, praeruptorin B], the “Wnt signaling activation capability (%) (Luminescence/GFP)” value in assay [1] is on record as 241%. Further, in assay [2] (10 μg/mL), the “Melanin synthesis (%)” value came to 136%.

Turning to `C[C@@H]1O[C@@H](O[C@H]2[C@H](OC(=O)[C@]34CCC(C)(C)C[C@H]3C3=CC[C@@H]5[C@@]6(C)C[C@H](O)[C@H](O[C@@H]7O[C@H](CO)[C@@H](O)[C@H](O[C@@H]8O[C@H](CO)[C@@H](O)[C@H](O)[C@H]8O)[C@H]7O)C(CO)(CO)[C@@H]6CC[C@@]5(C)[C@]3(C)C[C@H]4O)OC[C@H](O)[C@@H]2O)[C@H](O)[C@H](O)[C@H]1O[C@@H]1OC[C@@H](O)[C@H](O[C@@H]2OC[C@](O)(CO)[C@H]2O)[C@H]1O` [Platycodin D2, platycodin D2], the “Wnt signaling activation capability (%) (Luminescence/GFP)” value in assay [1] came out at 216%. Further, in assay [2] (10 μg/mL), the “Melanin synthesis (%)” value was determined as 119%.

For the compound escin, the “Wnt signaling activation capability (%) (Luminescence/GFP)” value in assay [1] was determined as 1098%. In addition, the “Melanin synthesis (%)” value in assay [2] (10 μg/mL) came out at 154%. In assay [2], the “melanin synthesis (FIG. 1)” value is listed as “increase in melanin synthesis”.

In the case of `C[C@@H]1O[C@@H](O[C@H]2[C@H](OC(=O)[C@]34CCC(C)(C)C[C@H]3C3=CC[C@@H]5[C@@]6(C)C[C@H](O)[C@H](O[C@@H]7O[C@H](CO)[C@@H](O)[C@H](O)[C@H]7O)[C@@](C)(CO)[C@@H]6CC[C@@]5(C)[C@]3(C)C[C@H]4O)OC[C@H](O)[C@@H]2O)[C@H](O)[C@H](O)[C@H]1O[C@@H]1OC[C@@H](O)[C@H](O[C@@H]2OC[C@](O)(CO)[C@H]2O)[C@H]1O` [Polygalacin D, polygalacin D], the “Wnt signaling activation capability (%) (Luminescence/GFP)” value in assay [1] is reported as 292%. Also, the “Melanin synthesis (%)” value in assay [2] (10 μg/mL) was 114%.

Take `CC1OC(OC2C(=O)c3c(O)cc(O)cc3OC2c2ccc(O)cc2)C(O)C(O)C1O` (stereo not drawn) [Engeletin, engeletin]: in assay [1], the “Wnt signaling activation capability (%) (Luminescence/GFP)” value was 223%. Further, the “Melanin synthesis (%)” value in assay [2] (10 μg/mL) is given as 121%.

As for `CC(=O)O[C@@H]1C[C@@]23C[C@@]24CC[C@H](O[C@@H]2OC[C@@H](O)[C@H](O)[C@H]2O)C(C)(C)[C@@H]4CC[C@H]3[C@]2(C)C[C@@H]3O[C@]4(C[C@@H](C)[C@@H]3[C@@]12C)OC[C@@]1(C)O[C@@H]41` [27-Deoxyactein, 27-deoxyactein], in assay [1], the “Wnt signaling activation capability (%) (Luminescence/GFP)” value turned out to be 1717%. The “Melanin synthesis (%)” value in assay [2] (10 μg/mL) is listed as 168%.

On to `CC1(C)CC[C@]2(C(=O)O)CC[C@]3(C)C(=CC[C@@H]4[C@@]5(C)CC[C@H](O[C@@H]6O[C@H](C(=O)O)[C@@H](O)[C@H](O[C@@H]7OC[C@@H](O)[C@H](O)[C@H]7O)[C@H]6O)C(C)(C)[C@@H]5CC[C@]43C)[C@@H]2C1` [Momordin Ic, momordin Ic], for which the “Wnt signaling activation capability (%) (Luminescence/GFP)” value in assay [1] came out at 370%. Further, the “Melanin synthesis (%)” value in assay [2] (10 μg/mL) is listed as 131%.

On to `COc1cc2c[n+](C)c3c4cc5c(cc4ccc3c2cc1OC)OCO5` [Nitidine chloride, nitidine chloride], for which, in assay [1], the “Wnt signaling activation capability (%) (Luminescence/GFP)” value was determined as 274%. In addition, the “Melanin synthesis (%)” value in assay [2] (10 μg/mL) is 125%.

In the case of `C[C@@H]1CC[C@]2(C(=O)O)CC[C@]3(C)C(=CC[C@@H]4[C@@]5(C)CC[C@H](O)[C@@](C)(CO)[C@@H]5CC[C@]43C)[C@@H]2[C@]1(C)O` [Rotunic acid, rotundic acid], the “Wnt signaling activation capability (%) (Luminescence/GFP)” value in assay [1] stood at 296%. For the same compound, the “Melanin synthesis (%)” value in assay [2] (10 μg/mL) was 144%.
